From patent publication US10258639B2, “Methods for treating insulin resistance and for sensitizing patients to GLP1 agonist therapy” (Research Development Foundation, priority 2014, dated 2019)

Tested on: INS1 cells
Test: RNAseq of INS1 cells grown in chronic high glucose compared to controls and stimulated with FSK (Table 2)
Assay type: cell-based, rat
Procedure: INS-1 insulinoma cells were cultured in RPMI (corning cellgro) containing 10% fetal bovine serum (Gemini Bio Products), 100 μg/mL penicillin-streptomycin and 1 mM sodium pyruvate (corning cellgro). MIN6 cells were grown in DMEM (corning cellgro) with 10% FBS, 100 μg/mL penicillin-streptomycin and 70 uM beta-mercaptoethanol. For chronic glucose experiments, cells were maintained under low (2.8 mM) or high (20 mM) glucose for 3 days. Exendin-4 (10 nM), Forskolin (10 μM), KCl (40 mM), DMOG (1 mM) and rapamycin (50 nM) were added to cells as indicated. Cellular cAMP levels were measured using an ELISA kit (Cayman Chemical Company) according to manufacturer's instructions. Total RNAs from cells or primary islets were extracted using Trizol and cDNA was generated using the Transcriptor First Strand cDNA Synthesis kit (Roche Applied Science). cDNAs were quantified on a lightcycler 480 instrument (Roche Applied Science). Gene expression data were presented relative to the expression of housekeeping gene L32 (rat samples) and 18S (mouse and human islets). RNA-Seq libraries were prepared using the mRNA isolation protocol and the NEBNext-Ultra kits from New England Biolabs following the manufacturer's protocols. Libraries were quantitated by Qubit (Invitrogen), and run on a MiSeq instrument with paired-end 75 bp reads using v3 chemistry (Illumina) Data were analyzed by tophat2 and cuffdiff against the mouse mm10 genome build. The GEO accession number for RNAseq studies reported in the paper is GSE60158.

In the case of C=C[C@@]1(C)CC(=O)[C@]2(O)[C@@]3(C)[C@@H](O)CCC(C)(C)[C@@H]3[C@H](O)[C@H](OC(C)=O)[C@@]2(C)O1 [FSK, Forskolin], the “Accsl RNAseq value” (High glucose, FSK) is reported as 0.1, the “Acpt RNAseq value” (High glucose, FSK) is reported as 0.2 and the “Acsl4 RNAseq value” (High glucose, FSK) is reported as 24.1. For the same compound, the “Agt RNAseq value” (High glucose, FSK) was 4.7, the “Ahi1 RNAseq value” (High glucose, FSK) was 18.6 and the “Bhlha15 RNAseq value” (High glucose, FSK) was 10.9. The “Btg3 RNAseq value” (High glucose, FSK) was 63.0, the “Bysl RNAseq value” (High glucose, FSK) was 56.8 and the “Canx RNAseq value” (High glucose, FSK) was 134.4. The “Ccni RNAseq value” (High glucose, FSK) was 240.1, the “Chd1 RNAseq value” (High glucose, FSK) was 24.3 and the “Chrne RNAseq value” (High glucose, FSK) was 0.0. For the same compound, the “Ctf1 RNAseq value” (High glucose, FSK) was 0.4, the “Cxcl2 RNAseq value” (High glucose, FSK) was 1.2 and the “Cyth3 RNAseq value” (High glucose, FSK) was 54.2. For the same compound, the “Dkc1 RNAseq value” (High glucose, FSK) was 97.6, the “Epha3 RNAseq value” (High glucose, FSK) was 0.0 and the “Epor RNAseq value” (High glucose, FSK) was 0.1. The “Fam49a RNAseq value” (High glucose, FSK) was 0.1, the “Ficd RNAseq value” (High glucose, FSK) was 15.9 and the “Fmc1 RNAseq value” (High glucose, FSK) was 28.5. The “Fn1 RNAseq value” (High glucose, FSK) was 320.4, the “Gabre RNAseq value” (High glucose, FSK) was 0.0 and the “Gars RNAseq value” (High glucose, FSK) was 308.1. For the same compound, the “Ggt5 RNAseq value” (High glucose, FSK) was 0.0, the “Gnl3 RNAseq value” (High glucose, FSK) was 23.1 and the “Gnmt RNAseq value” (High glucose, FSK) was 0.0. For the same compound, the “Gzmm RNAseq value” (High glucose, FSK) was 0.0, the “Hmcn1 RNAseq value” (High glucose, FSK) was 0.0 and the “Hmga2 RNAseq value” (High glucose, FSK) was 0.0. The “Hnrnpa1 RNAseq value” (High glucose, FSK) was 35.4, the “Hnrpdl RNAseq value” (High glucose, FSK) was 165.3 and the “Hs3st2 RNAseq value” (High glucose, FSK) was 1.0. For the same compound, the “Hspa4 RNAseq value” (High glucose, FSK) was 113.8, the “Hspd1 RNAseq value” (High glucose, FSK) was 63.0 and the “Icam2 RNAseq value” (High glucose, FSK) was 0.0. For the same compound, the “Il13ra1 RNAseq value” (High glucose, FSK) was 0.2, the “Il28ra RNAseq value” (High glucose, FSK) was 6.8 and the “Kcnb1 RNAseq value” (High glucose, FSK) was 13.1. For the same compound, the “Kcnj13 RNAseq value” (High glucose, FSK) was 0.8, the “Kdm1b RNAseq value” (High glucose, FSK) was 8.1 and the “Kif9 RNAseq value” (High glucose, FSK) was 0.0. The “LOC683722 RNAseq value” (High glucose, FSK) was 7.9, the “LOC686295 RNAseq value” (High glucose, FSK) was 3.8 and the “LOC689959 RNAseq value” (High glucose, FSK) was 7.2. The “Lrfn5 RNAseq value” (High glucose, FSK) was 0.2, the “Map3k4 RNAseq value” (High glucose, FSK) was 22.7 and the “Mef2d RNAseq value” (High glucose, FSK) was 175.0. The “Megf10 RNAseq value” (High glucose, FSK) was 0.2, the “Msn RNAseq value” (High glucose, FSK) was 3.2 and the “Myof RNAseq value” (High glucose, FSK) was 0.1. The “Nckap1l RNAseq value” (High glucose, FSK) was 1.8, the “Nkx2-2 RNAseq value” (High glucose, FSK) was 93.4 and the “Nolc1 RNAseq value” (High glucose, FSK) was 192.8. For the same compound, the “Notch4 RNAseq value” (High glucose, FSK) was 0.6, the “Ormdl3 RNAseq value” (High glucose, FSK) was 128.5 and the “Otop3 RNAseq value” (High glucose, FSK) was 0.0. For the same compound, the “Pabpc6 RNAseq value” (High glucose, FSK) was 0.1, the “Pde3b RNAseq value” (High glucose, FSK) was 45.5 and the “Pde4dip RNAseq value” (High glucose, FSK) was 29.3. For the same compound, the “Pdrg1 RNAseq value” (High glucose, FSK) was 28.6, the “Plcb2 RNAseq value” (High glucose, FSK) was 0.0 and the “RGD1309079 RNAseq value” (High glucose, FSK) was 0.8. The “RGD1311084 RNAseq value” (High glucose, FSK) was 0.0, the “Rab3gap2 RNAseq value” (High glucose, FSK) was 29.1 and the “Rab11fip1 RNAseq value” (High glucose, FSK) was 8.3. The “Rap2a RNAseq value” (High glucose, FSK) was 12.9, the “Rho RNAseq value” (High glucose, FSK) was 0.1 and the “Rpl7a RNAseq value” (High glucose, FSK) was 0.7. For the same compound, the “Rpl17 RNAseq value” (High glucose, FSK) was 126.3, the “Rrs1 RNAseq value” (High glucose, FSK) was 71.4 and the “Sgce RNAseq value” (High glucose, FSK) was 0.3. For the same compound, the “Smad1 RNAseq value” (High glucose, FSK) was 29.8, the “Smad3 RNAseq value” (High glucose, FSK) was 1.6 and the “Snapc1 RNAseq value” (High glucose, FSK) was 2.7. For the same compound, the “Sncaip RNAseq value” (High glucose, FSK) was 4.9, the “Spon2 RNAseq value” (High glucose, FSK) was 0.3 and the “Srp54 RNAseq value” (High glucose, FSK) was 27.8. The “Stard8 RNAseq value” (High glucose, FSK) was 0.4, the “Syp RNAseq value” (High glucose, FSK) was 447.7 and the “T2 RNAseq value” (High glucose, FSK) was 0.1. The “Taf1a RNAseq value” (High glucose, FSK) was 6.7, the “Tex38 RNAseq value” (High glucose, FSK) was 0.1 and the “Tmem114 RNAseq value” (High glucose, FSK) was 0.0. For the same compound, the “Tomm20 RNAseq value” (High glucose, FSK) was 70.0, the “Tpp2 RNAseq value” (High glucose, FSK) was 12.3 and the “Twistnb RNAseq value” (High glucose, FSK) was 9.1. For the same compound, the “Usp9x RNAseq value” (High glucose, FSK) was 40.0, the “Vps37b RNAseq value” (High glucose, FSK) was 32.2 and the “Zfp830 RNAseq value” (High glucose, FSK) was 17.0. For the same compound, the “Zfp385d RNAseq value” (High glucose, FSK) was 0.1, the “Accsl Fold” value (High glucose, FSK/control) was 0.9 and the “Acpt Fold” value (High glucose, FSK/control) was 3.0. The “Acsl4 Fold” value (High glucose, FSK/control) was 1.6, the “Agt Fold” value (High glucose, FSK/control) was 1.8 and the “Ahi1 Fold” value (High glucose, FSK/control) was 1.5. The “Bhlha15 Fold” value (High glucose, FSK/control) was 1.1, the “Btg3 Fold” value (High glucose, FSK/control) was 1.2 and the “Bysl Fold” value (High glucose, FSK/control) was 1.5. The “Canx Fold” value (High glucose, FSK/control) was 1.1, the “Ccni Fold” value (High glucose, FSK/control) was 1.5 and the “Chd1 Fold” value (High glucose, FSK/control) was 1.4. The “Chrne Fold” value (High glucose, FSK/control) was 0.0, the “Ctf1 Fold” value (High glucose, FSK/control) was 1.8 and the “Cxcl2 Fold” value (High glucose, FSK/control) was 3.2. The “Cyth3 Fold” value (High glucose, FSK/control) was 3.2, the “Dkc1 Fold” value (High glucose, FSK/control) was 1.2 and the “Epha3 Fold” value (High glucose, FSK/control) was 0.5. For the same compound, the “Epor Fold” value (High glucose, FSK/control) was 1.0, the “Fam49a Fold” value (High glucose, FSK/control) was 1.0 and the “Ficd Fold” value (High glucose, FSK/control) was 1.2. For the same compound, the “Fmc1 Fold” value (High glucose, FSK/control) was 1.1, the “Fn1 Fold” value (High glucose, FSK/control) was 2.7 and the “Gars Fold” value (High glucose, FSK/control) was 1.8. The “Gnl3 Fold” value (High glucose, FSK/control) was 1.3, the “Gzmm Fold” value (High glucose, FSK/control) was 0.0 and the “Hmcn1 Fold” value (High glucose, FSK/control) was 0.3. The “Hmga2 Fold” value (High glucose, FSK/control) was 0.0, the “Hnrnpa1 Fold” value (High glucose, FSK/control) was 1.4 and the “Hnrpdl Fold” value (High glucose, FSK/control) was 1.5. The “Hs3st2 Fold” value (High glucose, FSK/control) was 2.6, the “Hspa4 Fold” value (High glucose, FSK/control) was 1.2 and the “Hspd1 Fold” value (High glucose, FSK/control) was 1.0. The “Icam2 Fold” value (High glucose, FSK/control) was 0.0, the “Il13ra1 Fold” value (High glucose, FSK/control) was 1.0 and the “Il28ra Fold” value (High glucose, FSK/control) was 1.7. The “Kcnb1 Fold” value (High glucose, FSK/control) was 0.8, the “Kcnj13 Fold” value (High glucose, FSK/control) was 3.0 and the “Kdm1b Fold” value (High glucose, FSK/control) was 1.4. For the same compound, the “Kif9 Fold” value (High glucose, FSK/control) was 0.7, the “LOC683722 Fold” value (High glucose, FSK/control) was 1.8 and the “LOC686295 Fold” value (High glucose, FSK/control) was 1.3. For the same compound, the “LOC689959 Fold” value (High glucose, FSK/control) was 0.9, the “Lrfn5 Fold” value (High glucose, FSK/control) was 1.2 and the “Map3k4 Fold” value (High glucose, FSK/control) was 1.3. The “Mef2d Fold” value (High glucose, FSK/control) was 1.8, the “Msn Fold” value (High glucose, FSK/control) was 1.0 and the “Myof Fold” value (High glucose, FSK/control) was 0.6. The “Nckap1l Fold” value (High glucose, FSK/control) was 0.9, the “Nkx2-2 Fold” value (High glucose, FSK/control) was 2.2 and the “Nolc1 Fold” value (High glucose, FSK/control) was 1.2. For the same compound, the “Notch4 Fold” value (High glucose, FSK/control) was 1.7, the “Ormdl3 Fold” value (High glucose, FSK/control) was 1.1 and the “Otop3 Fold” value (High glucose, FSK/control) was 0.0. For the same compound, the “Pabpc6 Fold” value (High glucose, FSK/control) was 4.4, the “Pde3b Fold” value (High glucose, FSK/control) was 1.9 and the “Pde4dip Fold” value (High glucose, FSK/control) was 1.4. The “Pdrg1 Fold” value (High glucose, FSK/control) was 1.0, the “Plcb2 Fold” value (High glucose, FSK/control) was 1.0 and the “RGD1309079 Fold” value (High glucose, FSK/control) was 1.3. The “Rab3gap2 Fold” value (High glucose, FSK/control) was 1.3, the “Rab11fip1 Fold” value (High glucose, FSK/control) was 1.9 and the “Rap2a Fold” value (High glucose, FSK/control) was 2.2. For the same compound, the “Rho Fold” value (High glucose, FSK/control) was 0.7, the “Rpl7a Fold” value (High glucose, FSK/control) was 2.5 and the “Rpl17 Fold” value (High glucose, FSK/control) was 1.0. For the same compound, the “Rrs1 Fold” value (High glucose, FSK/control) was 1.5, the “Sgce Fold” value (High glucose, FSK/control) was 0.8 and the “Smad1 Fold” value (High glucose, FSK/control) was 1.4. The “Smad3 Fold” value (High glucose, FSK/control) was 0.7, the “Snapc1 Fold” value (High glucose, FSK/control) was 1.2 and the “Sncaip Fold” value (High glucose, FSK/control) was 1.4. For the same compound, the “Spon2 Fold” value (High glucose, FSK/control) was 0.7, the “Srp54 Fold” value (High glucose, FSK/control) was 1.1 and the “Stard8 Fold” value (High glucose, FSK/control) was 2.3. The “Syp Fold” value (High glucose, FSK/control) was 1.5, the “T2 Fold” value (High glucose, FSK/control) was 0.7 and the “Taf1a Fold” value (High glucose, FSK/control) was 1.3. For the same compound, the “Tex38 Fold” value (High glucose, FSK/control) was 0.3, the “Tomm20 Fold” value (High glucose, FSK/control) was 1.4 and the “Tpp2 Fold” value (High glucose, FSK/control) was 1.3. For the same compound, the “Twistnb Fold” value (High glucose, FSK/control) was 1.5, the “Usp9x Fold” value (High glucose, FSK/control) was 1.5 and the “Vps37b Fold” value (High glucose, FSK/control) was 1.3. The “Zfp830 Fold” value (High glucose, FSK/control) was 1.1, the “Zfp385d Fold” value (High glucose, FSK/control) was 0.2 and the “Accsl RNAseq value” (Low glucose, FSK) was 0.3. The “Acpt RNAseq value” (Low glucose, FSK) was 0.3 and the “Acsl4 RNAseq value” (Low glucose, FSK) was 28.6.
